pIC50: −log10 of the molar value.
Assays:
CYP2D6 = CYP2D6 (Homo sapiens, UniProt P10635); assay: biochemical
CYP3A4 = CYP3A4 (Homo sapiens, UniProt P08684); assay: biochemical
Sequence of CYP3A4 (P08684 2-503): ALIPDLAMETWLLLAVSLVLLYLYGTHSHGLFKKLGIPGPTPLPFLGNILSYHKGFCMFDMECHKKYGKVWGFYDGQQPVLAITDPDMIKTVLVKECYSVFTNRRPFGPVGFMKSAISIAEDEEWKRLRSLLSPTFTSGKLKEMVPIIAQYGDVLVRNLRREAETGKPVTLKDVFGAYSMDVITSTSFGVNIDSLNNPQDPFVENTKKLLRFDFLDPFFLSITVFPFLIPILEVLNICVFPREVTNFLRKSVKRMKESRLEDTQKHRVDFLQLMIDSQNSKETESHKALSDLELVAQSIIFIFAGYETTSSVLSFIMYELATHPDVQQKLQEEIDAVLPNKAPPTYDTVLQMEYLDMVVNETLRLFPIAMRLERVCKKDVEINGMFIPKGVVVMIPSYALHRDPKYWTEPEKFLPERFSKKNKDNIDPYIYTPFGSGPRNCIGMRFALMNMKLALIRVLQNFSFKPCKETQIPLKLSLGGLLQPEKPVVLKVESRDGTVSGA

Sequence of CYP2D6 (P10635 whole entry): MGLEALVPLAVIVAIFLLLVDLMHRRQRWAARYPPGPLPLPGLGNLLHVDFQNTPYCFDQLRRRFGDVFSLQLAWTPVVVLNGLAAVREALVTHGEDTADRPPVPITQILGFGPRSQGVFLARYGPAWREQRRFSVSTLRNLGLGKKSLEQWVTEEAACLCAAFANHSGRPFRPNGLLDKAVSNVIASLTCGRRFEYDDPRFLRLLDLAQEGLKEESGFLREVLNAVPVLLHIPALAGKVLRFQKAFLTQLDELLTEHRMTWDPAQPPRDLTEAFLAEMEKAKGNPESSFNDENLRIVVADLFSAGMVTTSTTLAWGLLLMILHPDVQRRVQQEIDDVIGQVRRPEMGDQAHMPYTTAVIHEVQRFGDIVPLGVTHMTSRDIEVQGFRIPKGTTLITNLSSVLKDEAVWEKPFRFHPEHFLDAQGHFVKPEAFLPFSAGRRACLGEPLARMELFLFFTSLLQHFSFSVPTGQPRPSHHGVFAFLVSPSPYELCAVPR

| pIC50 (CYP2D6) | pIC50 (CYP3A4) | SMILES |
| --- | --- | --- |
| 1.90 | 2.32 | C[C@@]12C[C@@]3(O)O[C@@H](O1)[C@]1(COC(=O)c4ccccc4)[C@H]3C[C@@]12O[C@@H]1O[C@H](CO)[C@@H](O)[C@H](O)[C@H]1O [paeoniflorin] |
| 1.84 | 1.94 | CC12CC(O)C3CC1(O[C@@H]1O[C@H](CO)[C@@H](O)[C@H](O)[C@H]1O)C3(COC(=O)c1ccccc1)C(=O)O2 (stereo partly shown) [albiflorin] |

Source: paper PMC4452296, “Comparison of Paeoniflorin and Albiflorin on Human CYP3A4 and CYP2D6” (Evidence-based Complementary and Alternative Medicine : eCAM, 2015)
